# Columns and labels:
# Assay in all cases: Kinase profiling
# Format in all cases: binding
# Conditions in all cases: read-out: % Ctrl @ 1000 nM
# CLK4 = CLK4 (Homo sapiens, UniProt Q9HAZ1)
# [1] = biological target: ABL1 (F317I)-phosphorylated (Homo sapiens, UniProt P00519, F317I)
# [2] = biological target: ABL1 (T315I)-phosphorylated (Homo sapiens, UniProt P00519, T315I)
# CDKL3 = CDKL3 (Homo sapiens, UniProt Q8IVW4)
# PRKD3 = PRKD3 (Homo sapiens, UniProt O94806)
# TNIK = TNIK (Homo sapiens, UniProt Q9UKE5)
# VEGFR2 = VEGFR2 (Homo sapiens, UniProt P35968)
# TLK2 = TLK2 (Homo sapiens, UniProt Q86UE8)
# Chain of TLK2 (Q86UE8 whole entry): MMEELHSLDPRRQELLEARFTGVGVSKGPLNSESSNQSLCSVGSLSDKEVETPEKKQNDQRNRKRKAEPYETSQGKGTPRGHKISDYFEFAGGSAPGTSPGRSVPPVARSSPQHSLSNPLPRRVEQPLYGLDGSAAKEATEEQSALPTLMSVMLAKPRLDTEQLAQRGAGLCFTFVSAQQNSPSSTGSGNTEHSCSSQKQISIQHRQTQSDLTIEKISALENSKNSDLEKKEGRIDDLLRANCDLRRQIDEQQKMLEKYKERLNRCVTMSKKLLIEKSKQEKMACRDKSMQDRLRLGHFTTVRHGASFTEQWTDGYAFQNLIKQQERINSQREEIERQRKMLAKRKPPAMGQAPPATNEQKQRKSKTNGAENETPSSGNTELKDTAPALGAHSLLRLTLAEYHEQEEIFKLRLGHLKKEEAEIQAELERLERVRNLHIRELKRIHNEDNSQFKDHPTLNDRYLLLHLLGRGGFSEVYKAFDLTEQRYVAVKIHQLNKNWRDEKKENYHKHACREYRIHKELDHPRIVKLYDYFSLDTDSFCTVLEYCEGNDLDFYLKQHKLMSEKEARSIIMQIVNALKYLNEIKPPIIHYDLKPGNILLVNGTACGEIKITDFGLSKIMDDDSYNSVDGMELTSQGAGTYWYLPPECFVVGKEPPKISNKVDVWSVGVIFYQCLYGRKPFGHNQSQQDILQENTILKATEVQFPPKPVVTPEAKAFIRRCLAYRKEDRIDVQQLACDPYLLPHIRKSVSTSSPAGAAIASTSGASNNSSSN
# EIF2AK1 = EIF2AK1 (Homo sapiens, UniProt Q9BQI3)
# CIT = CIT (Homo sapiens, UniProt O14578)
# PRKG2 = PRKG2 (Homo sapiens, UniProt Q13237)
# ANKK1 = ANKK1 (Homo sapiens, UniProt Q8NFD2)
# Chain of ANKK1 (Q8NFD2 whole entry): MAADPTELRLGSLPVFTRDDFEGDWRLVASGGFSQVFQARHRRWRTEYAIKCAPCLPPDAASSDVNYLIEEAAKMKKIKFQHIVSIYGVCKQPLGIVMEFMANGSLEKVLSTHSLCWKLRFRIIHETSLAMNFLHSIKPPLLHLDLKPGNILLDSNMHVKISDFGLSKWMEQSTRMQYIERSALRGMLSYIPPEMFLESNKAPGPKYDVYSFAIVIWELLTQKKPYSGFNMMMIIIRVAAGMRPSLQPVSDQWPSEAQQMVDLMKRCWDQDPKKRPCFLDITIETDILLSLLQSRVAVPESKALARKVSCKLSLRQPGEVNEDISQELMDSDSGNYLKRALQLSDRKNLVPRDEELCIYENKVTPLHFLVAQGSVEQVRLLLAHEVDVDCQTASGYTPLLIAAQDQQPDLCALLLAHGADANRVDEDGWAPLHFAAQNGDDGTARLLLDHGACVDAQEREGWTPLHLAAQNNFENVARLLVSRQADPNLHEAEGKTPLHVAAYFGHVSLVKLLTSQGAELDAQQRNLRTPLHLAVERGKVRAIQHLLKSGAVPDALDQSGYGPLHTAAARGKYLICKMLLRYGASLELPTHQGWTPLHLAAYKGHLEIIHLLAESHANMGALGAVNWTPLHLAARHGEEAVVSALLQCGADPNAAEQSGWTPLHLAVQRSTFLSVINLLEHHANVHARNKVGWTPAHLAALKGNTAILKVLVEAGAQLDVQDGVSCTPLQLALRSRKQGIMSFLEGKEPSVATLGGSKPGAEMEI
# PAK3 = PAK3 (Homo sapiens, UniProt O75914)
# AURKC = AURKC (Homo sapiens, UniProt Q9UQB9)
# HIPK1 = HIPK1 (Homo sapiens, UniProt Q86Z02)
# TYRO3 = TYRO3 (Homo sapiens, UniProt Q06418)
# SRPK2 = SRPK2 (Homo sapiens, UniProt P78362)
# Chain of SRPK2 (P78362 whole entry): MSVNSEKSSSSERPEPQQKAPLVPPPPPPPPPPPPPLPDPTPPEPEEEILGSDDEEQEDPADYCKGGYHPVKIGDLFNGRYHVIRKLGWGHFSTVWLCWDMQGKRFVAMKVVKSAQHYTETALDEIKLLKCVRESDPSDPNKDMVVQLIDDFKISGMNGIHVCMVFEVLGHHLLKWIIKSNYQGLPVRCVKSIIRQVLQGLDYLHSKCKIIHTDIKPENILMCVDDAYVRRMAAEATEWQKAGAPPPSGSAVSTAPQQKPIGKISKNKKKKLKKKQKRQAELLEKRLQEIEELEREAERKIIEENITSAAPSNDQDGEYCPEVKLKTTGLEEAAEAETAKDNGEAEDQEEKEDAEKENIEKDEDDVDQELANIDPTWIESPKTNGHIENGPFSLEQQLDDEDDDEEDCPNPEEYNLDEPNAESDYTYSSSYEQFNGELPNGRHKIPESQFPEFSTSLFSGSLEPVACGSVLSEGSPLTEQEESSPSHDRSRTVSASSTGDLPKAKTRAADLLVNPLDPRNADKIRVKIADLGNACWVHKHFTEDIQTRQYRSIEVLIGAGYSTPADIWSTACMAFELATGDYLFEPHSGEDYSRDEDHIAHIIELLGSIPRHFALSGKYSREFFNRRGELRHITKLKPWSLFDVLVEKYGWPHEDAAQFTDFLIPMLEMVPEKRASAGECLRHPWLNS
# NEK5 = biological target: T1, NEK5 (Homo sapiens, UniProt Q6P3R8)
# T1 construct: T7 phage fusion (said for most assays); made in house
# T1 sequence (Q6P3R8 whole entry, the tested form may be a part): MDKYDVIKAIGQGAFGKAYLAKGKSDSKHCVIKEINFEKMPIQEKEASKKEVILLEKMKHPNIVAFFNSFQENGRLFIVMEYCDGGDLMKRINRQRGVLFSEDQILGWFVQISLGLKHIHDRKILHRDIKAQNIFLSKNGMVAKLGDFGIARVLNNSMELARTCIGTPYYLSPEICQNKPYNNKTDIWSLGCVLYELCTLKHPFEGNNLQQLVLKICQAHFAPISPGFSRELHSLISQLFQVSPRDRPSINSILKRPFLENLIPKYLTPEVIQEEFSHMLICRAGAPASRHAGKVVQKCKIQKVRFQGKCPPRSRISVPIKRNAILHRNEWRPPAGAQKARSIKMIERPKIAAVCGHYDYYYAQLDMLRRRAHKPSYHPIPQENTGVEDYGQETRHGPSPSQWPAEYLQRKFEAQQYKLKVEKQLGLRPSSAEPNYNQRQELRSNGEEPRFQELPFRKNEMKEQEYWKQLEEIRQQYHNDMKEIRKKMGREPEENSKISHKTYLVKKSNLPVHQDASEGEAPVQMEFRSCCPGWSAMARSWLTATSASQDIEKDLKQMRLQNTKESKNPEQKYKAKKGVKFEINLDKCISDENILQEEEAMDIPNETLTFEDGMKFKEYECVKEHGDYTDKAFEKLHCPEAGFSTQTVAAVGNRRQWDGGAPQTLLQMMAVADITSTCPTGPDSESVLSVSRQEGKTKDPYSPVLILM
# PAK1 = PAK1 (Homo sapiens, UniProt Q13153)
# DAPK3 = DAPK3 (Homo sapiens, UniProt O43293)
# PFTK1 = PFTK1 (Homo sapiens, UniProt O94921)
# ABL1-nonphosphorylated = ABL1-nonphosphorylated (Homo sapiens, UniProt P00519)
# DCAMKL3 = DCAMKL3 (Homo sapiens, UniProt Q9C098)
# CAMK1G = CAMK1G (Homo sapiens, UniProt Q96NX5)
# PIM3 = PIM3 (Homo sapiens, UniProt Q86V86)
# FGFR2 = FGFR2 (Homo sapiens, UniProt P21802)
# VRK2 = VRK2 (Homo sapiens, UniProt Q86Y07)
# CDK4-cyclinD3 = CDK4-cyclinD3 (Homo sapiens, UniProt P11802)
# HPK1 = HPK1 (Homo sapiens, UniProt Q92918)
# KIT (V559D) = KIT (V559D) (Homo sapiens, UniProt P10721, V559D)
# Chain of KIT (V559D) (P10721 26-976 V559D): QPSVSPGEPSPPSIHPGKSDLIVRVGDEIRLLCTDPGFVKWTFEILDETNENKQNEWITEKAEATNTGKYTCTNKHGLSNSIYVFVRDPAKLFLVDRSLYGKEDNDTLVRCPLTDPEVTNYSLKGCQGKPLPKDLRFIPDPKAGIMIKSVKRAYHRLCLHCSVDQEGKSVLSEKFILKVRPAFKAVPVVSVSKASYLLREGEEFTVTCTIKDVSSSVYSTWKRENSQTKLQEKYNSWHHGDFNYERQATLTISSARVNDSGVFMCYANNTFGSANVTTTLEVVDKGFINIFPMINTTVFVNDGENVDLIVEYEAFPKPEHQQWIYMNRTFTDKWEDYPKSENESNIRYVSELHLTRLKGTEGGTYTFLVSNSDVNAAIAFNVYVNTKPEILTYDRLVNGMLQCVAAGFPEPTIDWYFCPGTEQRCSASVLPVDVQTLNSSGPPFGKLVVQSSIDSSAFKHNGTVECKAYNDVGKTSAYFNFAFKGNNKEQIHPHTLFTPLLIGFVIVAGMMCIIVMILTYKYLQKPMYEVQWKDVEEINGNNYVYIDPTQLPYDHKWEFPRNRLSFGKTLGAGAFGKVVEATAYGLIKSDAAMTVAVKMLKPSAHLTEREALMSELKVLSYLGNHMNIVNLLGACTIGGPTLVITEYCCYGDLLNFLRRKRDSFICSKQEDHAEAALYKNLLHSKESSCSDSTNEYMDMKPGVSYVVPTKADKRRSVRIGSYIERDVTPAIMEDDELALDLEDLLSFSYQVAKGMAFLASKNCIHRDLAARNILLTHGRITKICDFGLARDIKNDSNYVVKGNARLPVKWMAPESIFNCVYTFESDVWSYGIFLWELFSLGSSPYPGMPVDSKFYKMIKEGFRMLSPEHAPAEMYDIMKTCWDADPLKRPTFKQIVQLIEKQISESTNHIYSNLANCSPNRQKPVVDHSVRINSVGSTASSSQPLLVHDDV
# AMPK-alpha1 = AMPK-alpha1 (Homo sapiens, UniProt Q13131)
# MST3 = biological target: T2, MST3 (Homo sapiens, UniProt Q9Y6E0)
# T2 construct: T7 phage fusion (said for most assays); made in house
# EGFR (G719S) = EGFR (G719S) (Homo sapiens, UniProt P00533, G719S)
# p38-gamma = p38-gamma (Homo sapiens, UniProt P53778)
# MKNK1 = biological target: T3, MKNK1 (Homo sapiens, UniProt Q9BUB5)
# T3 construct: T7 phage fusion (stated for most kinases of the panel only); made in house; host or cells: T7 phage in E. coli (BL21-derived) or HEK-293 cells
# [3] = biological target: RSK3 (Kin.Dom.2-C-terminal) (Homo sapiens, UniProt Q15349)
# Chain of RSK3 (Kin.Dom.2-C-terminal) (Q15349 415-672 limits assumed): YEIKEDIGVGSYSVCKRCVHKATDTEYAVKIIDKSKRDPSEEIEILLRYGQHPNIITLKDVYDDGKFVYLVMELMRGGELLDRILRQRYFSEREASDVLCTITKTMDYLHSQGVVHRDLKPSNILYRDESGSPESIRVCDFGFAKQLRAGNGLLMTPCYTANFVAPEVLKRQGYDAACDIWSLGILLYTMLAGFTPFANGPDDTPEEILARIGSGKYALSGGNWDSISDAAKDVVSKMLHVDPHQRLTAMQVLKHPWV
# PFCDPK1 (P.falciparum) = PFCDPK1 (P.falciparum) (Plasmodium falciparum, UniProt P62344)
# Chain of PFCDPK1 (P.falciparum) (P62344 whole entry): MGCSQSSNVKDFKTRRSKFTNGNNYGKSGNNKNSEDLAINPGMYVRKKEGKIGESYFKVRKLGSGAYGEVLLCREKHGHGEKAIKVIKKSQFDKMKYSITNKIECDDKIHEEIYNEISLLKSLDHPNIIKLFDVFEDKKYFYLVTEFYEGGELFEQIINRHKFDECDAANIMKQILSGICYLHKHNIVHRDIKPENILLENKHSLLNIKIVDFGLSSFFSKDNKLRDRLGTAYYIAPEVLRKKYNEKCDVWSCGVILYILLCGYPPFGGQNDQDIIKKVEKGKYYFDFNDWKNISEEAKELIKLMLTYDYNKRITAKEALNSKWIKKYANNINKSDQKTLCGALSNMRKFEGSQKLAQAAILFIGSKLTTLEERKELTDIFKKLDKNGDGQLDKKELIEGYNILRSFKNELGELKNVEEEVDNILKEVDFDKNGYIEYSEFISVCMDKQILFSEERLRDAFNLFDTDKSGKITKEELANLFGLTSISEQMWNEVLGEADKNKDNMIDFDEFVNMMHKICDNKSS
# TNK1 = TNK1 (Homo sapiens, UniProt Q13470)
# KIT (L576P) = KIT (L576P) (Homo sapiens, UniProt P10721, L576P)
# Chain of KIT (L576P) (P10721 26-976 L576P): as the sequence (P10721 26-976 V559D) above, with D534V, L551P counted along it
smiles,measurement,setting,value
Cc1cc(Oc2cc(NC(=O)C3CC3)ncn2)ccc1NC(=O)Nc1ccc(Cl)c(C(F)(F)F)c1 [CBT-102],remaining activity at 1 µM,CLK4,95%
same,remaining activity at 1 µM,[1],95%
same,remaining activity at 1 µM,[2],51%
same,remaining activity at 1 µM,CDKL3,4.3%
same,remaining activity at 1 µM,PRKD3,91%
same,remaining activity at 1 µM,TNIK,8.3%
same,remaining activity at 1 µM,VEGFR2,1.4%
same,remaining activity at 1 µM,TLK2,100%
same,remaining activity at 1 µM,EIF2AK1,99%
same,remaining activity at 1 µM,CIT,87%
same,remaining activity at 1 µM,PRKG2,91%
same,remaining activity at 1 µM,ANKK1,100%
same,remaining activity at 1 µM,PAK3,100%
same,remaining activity at 1 µM,AURKC,33%
same,remaining activity at 1 µM,HIPK1,96%
same,remaining activity at 1 µM,TYRO3,82%
same,remaining activity at 1 µM,SRPK2,100%
same,remaining activity at 1 µM,NEK5,96%
same,remaining activity at 1 µM,PAK1,100%
same,remaining activity at 1 µM,DAPK3,96%
same,remaining activity at 1 µM,PFTK1,34%
same,remaining activity at 1 µM,ABL1-nonphosphorylated,3.3%
same,remaining activity at 1 µM,DCAMKL3,100%
same,remaining activity at 1 µM,CAMK1G,91%
same,remaining activity at 1 µM,PIM3,98%
same,remaining activity at 1 µM,FGFR2,62%
same,remaining activity at 1 µM,VRK2,100%
same,remaining activity at 1 µM,CDK4-cyclinD3,100%
same,remaining activity at 1 µM,HPK1,23%
same,remaining activity at 1 µM,KIT (V559D),0%
same,remaining activity at 1 µM,AMPK-alpha1,98%
same,remaining activity at 1 µM,MST3,89%
same,remaining activity at 1 µM,EGFR (G719S),84%
same,remaining activity at 1 µM,p38-gamma,28%
same,remaining activity at 1 µM,MKNK1,100%
same,remaining activity at 1 µM,[3],92%
same,remaining activity at 1 µM,PFCDPK1 (P.falciparum),53%
same,remaining activity at 1 µM,TNK1,52%
same,remaining activity at 1 µM,KIT (L576P),0%

# Source: patent US20220088016A1, “CANCER TREATMENT USING MULTI-TARGETED KINASE INHIBITOR IN COMBINATION OF PROTEIN KINASE BIOMARKERS” (ZHEJIANG CROWNMAB BIOTECH CO. LTD., priority 2019, published 2022)
